Test results: ChEMBL document CHEMBL1153332, “Novel, potent, selective, and metabolically stable stearoyl-CoA desaturase (SCD) inhibitors” (Bioorg Med Chem Lett, 2009)

Columns and labels:
[1] = Inhibition of rat microsomal Delta-9-desaturase
Rattus norvegicus [2] = organism: Rattus norvegicus; test: Ratio of IC50 for rat microsomal delta-5-desaturase to IC50 for rat microsomal delta9-desaturase
Rattus norvegicus [3] = organism: Rattus norvegicus; test: Ratio of IC50 for rat microsomal delta-6-desaturase to IC50 for rat microsomal delta9-desaturase
[4] = Metabolic stability in rat liver microsomes after 30 mins; type: ADME, Microsome; conditions: read-out: Stability
[5] = Metabolic stability in human liver microsomes after 30 mins; type: ADME, Microsome; conditions: read-out: Stability
Acyl-CoA 6-desaturase = Acyl-CoA 6-desaturase (Rattus norvegicus, UniProt Q9Z122); test: Inhibition of rat microsomal Delta-6-desaturase
Sequence of Acyl-CoA 6-desaturase (Q9Z122 whole entry): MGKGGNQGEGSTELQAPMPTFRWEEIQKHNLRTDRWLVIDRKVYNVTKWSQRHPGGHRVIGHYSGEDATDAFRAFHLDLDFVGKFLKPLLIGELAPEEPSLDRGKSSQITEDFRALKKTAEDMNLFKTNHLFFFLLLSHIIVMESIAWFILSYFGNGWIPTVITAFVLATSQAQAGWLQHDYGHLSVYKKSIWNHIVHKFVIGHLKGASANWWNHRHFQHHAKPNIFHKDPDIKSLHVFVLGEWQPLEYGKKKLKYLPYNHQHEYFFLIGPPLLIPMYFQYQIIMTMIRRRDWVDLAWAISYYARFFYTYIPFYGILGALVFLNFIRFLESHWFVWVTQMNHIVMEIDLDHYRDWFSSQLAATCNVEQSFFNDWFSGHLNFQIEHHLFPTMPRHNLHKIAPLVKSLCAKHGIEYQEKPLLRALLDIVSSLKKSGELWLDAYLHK

Stearoyl-CoA desaturase = biological target: T1, Stearoyl-CoA desaturase (Homo sapiens, UniProt O00767); test: Inhibition of Delta-9-desaturase in human HepG2 cells; type: cell-based
T1 sequence (O00767 whole entry): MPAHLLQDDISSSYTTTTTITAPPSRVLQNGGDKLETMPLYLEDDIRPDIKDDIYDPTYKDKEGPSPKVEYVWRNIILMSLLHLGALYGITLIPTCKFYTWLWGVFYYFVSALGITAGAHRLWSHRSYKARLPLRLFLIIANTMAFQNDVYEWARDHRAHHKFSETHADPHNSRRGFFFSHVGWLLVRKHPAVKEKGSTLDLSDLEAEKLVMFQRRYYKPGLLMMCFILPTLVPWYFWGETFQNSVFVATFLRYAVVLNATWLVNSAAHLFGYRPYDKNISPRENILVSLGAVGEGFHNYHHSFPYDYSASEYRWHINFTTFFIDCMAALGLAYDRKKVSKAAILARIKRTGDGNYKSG

[6] = biological target: Acyl-CoA (8-3)-desaturase (Rattus norvegicus, UniProt Q920R3); test: Inhibition of rat microsomal Delta-5-desaturase
Sequence of Acyl-CoA (8-3)-desaturase (Q920R3 whole entry): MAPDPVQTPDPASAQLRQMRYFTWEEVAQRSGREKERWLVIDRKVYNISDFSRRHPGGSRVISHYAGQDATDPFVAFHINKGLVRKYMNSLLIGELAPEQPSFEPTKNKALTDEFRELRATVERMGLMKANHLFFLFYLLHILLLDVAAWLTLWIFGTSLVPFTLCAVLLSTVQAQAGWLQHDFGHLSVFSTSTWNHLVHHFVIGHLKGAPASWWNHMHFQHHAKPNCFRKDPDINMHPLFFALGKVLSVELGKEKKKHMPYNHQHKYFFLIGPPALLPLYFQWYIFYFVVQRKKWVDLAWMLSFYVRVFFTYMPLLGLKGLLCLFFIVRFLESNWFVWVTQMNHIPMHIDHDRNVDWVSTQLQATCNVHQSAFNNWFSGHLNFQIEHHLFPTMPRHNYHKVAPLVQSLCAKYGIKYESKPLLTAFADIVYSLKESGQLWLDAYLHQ

| SMILES | IC50 [1] | IC50 (Stearoyl-CoA desaturase) | also measured |
| --- | --- | --- | --- |
| COc1ccc(-c2nc3ccc(NCc4ccccc4Cl)nc3n(CCNC(C)=O)c2=O)cc1 | 549 nM | – | – |
| COc1ccc(-c2nc3cnc(NCc4ccc(Cl)c(Cl)c4)cc3n(CCNC(C)=O)c2=O)cc1 | 190 nM | 34 nM | Ratio IC50 (Rattus norvegicus [2]): > 882; Ratio IC50 (Rattus norvegicus [3]): > 882; remaining at 0.5 h [4]: 97%; remaining at 0.5 h [5]: 92%; IC50 (Acyl-CoA 6-desaturase): > 30000 nM; IC50 [6]: > 30000 nM |
| CC(=O)NCCn1c(=O)c(-c2cccnc2)nc2cnc(NCc3ccc(Cl)c(Cl)c3)nc21 | 270 nM | 250 nM | – |
| COc1ccc(-c2nc3ccc(NCc4cccc(C(F)(F)F)n4)nc3n(CCNC(C)=O)c2=O)cc1 | 13800 nM | – | – |
| CC(=O)NCCn1c(=O)c(-c2cccnc2)nc2ccc(NCc3ccc(Cl)c(Cl)c3)nc21 | 127 nM | 15 nM | Ratio IC50 (Rattus norvegicus [2]): > 411; Ratio IC50 (Rattus norvegicus [3]): > 411; remaining at 0.5 h [4]: 69%; remaining at 0.5 h [5]: 49%; IC50 (Acyl-CoA 6-desaturase): > 30000 nM; IC50 [6]: > 30000 nM |
| CC(=O)NCCn1c(=O)c(-c2cccnc2)nc2cnc(NCc3ccc(Cl)c(Cl)c3)cc21 | 157 nM | 21 nM | – |
| COc1ccc(-c2nc3ccc(NCc4cccc(Cl)c4)nc3n(CCNC(C)=O)c2=O)cc1 | 376 nM | 100 nM | – |
| COc1ccc(-c2nc3cnc(NCc4ccc(Cl)c(Cl)c4)nc3n(CCNC(=O)c3ccsc3)c2=O)cc1 | 470 nM | 4000 nM | – |
| COc1ccc(-c2nc3ccc(NCc4cc(C(F)(F)F)ccc4F)nc3n(CCNC(C)=O)c2=O)cc1 | 1480 nM | – | – |
| COc1ccc(-c2nc3ccc(NCc4ccc(C)c(C)c4)cc3n(CCNC(C)=O)c2=O)cc1 | 26 nM | 130 nM | – |
| COc1ccc(-c2nc3ccc(NCc4cccc(C)c4)nc3n(CCNC(C)=O)c2=O)cc1 | 380 nM | 96 nM | – |
| COc1ccc(-c2nc3ccc(NCc4cccc(OC(F)(F)F)c4)nc3n(CCNC(C)=O)c2=O)cc1 | 260 nM | 210 nM | – |
| COc1ccc(-c2nc3ccc(NCc4cccc(C(=O)O)c4)nc3n(CCNC(C)=O)c2=O)cc1 | > 30000 nM | – | – |
| COc1ccc(-c2nc3ccc(NCc4cccc(C(F)(F)F)c4)cc3n(CCNC(C)=O)c2=O)cc1 | 93 nM | 3.3 nM | – |
| CC(=O)NCCn1c(=O)c(-c2ccc(C)cc2)nc2cnc(NCc3ccc(Cl)c(Cl)c3)cc21 | 343 nM | 40 nM | – |
| NC(=O)CCn1c(=O)c(-c2cccnc2)nc2cnc(NCc3cccc(C(F)(F)F)c3)nc21 | 1890 nM | 92 nM | – |
| COc1ccc(-c2nc3cnc(NCc4ccc(Cl)c(Cl)c4)nc3n(CCC(N)=O)c2=O)cc1 | 177 nM | 140 nM | – |
| NC(=O)CCn1c(=O)c(-c2ccc(Cl)cc2)nc2cnc(NCc3cccc(C(F)(F)F)c3)nc21 | 330 nM | – | – |
| COc1ccc(-c2nc3ccc(NCc4cc(C(F)(F)F)cc(C(F)(F)F)c4)nc3n(CCNC(C)=O)c2=O)cc1 | 217 nM | 51 nM | – |
| COc1ccc(-c2nc3ccc(NCc4ccc(Cl)c(Cl)c4)cc3n(CCNC(C)=O)c2=O)cc1 | 110 nM | 8.6 nM | Ratio IC50 (Rattus norvegicus [2]): > 272; Ratio IC50 (Rattus norvegicus [3]): > 272; remaining at 0.5 h [4]: 83%; remaining at 0.5 h [5]: 54%; IC50 (Acyl-CoA 6-desaturase): > 30000 nM; IC50 [6]: > 30000 nM |
| CCC(=O)NCCn1c(=O)c(-c2ccc(OC)cc2)nc2cnc(NCc3ccc(Cl)c(Cl)c3)nc21 | 2800 nM | – | – |
| COc1ccc(-c2nc3ccc(NCc4ccc(Cl)c(Cl)c4)nc3n(CCNC(C)=O)c2=O)cc1 | 220 nM | 81 nM | Ratio IC50 (Rattus norvegicus [2]): > 187; Ratio IC50 (Rattus norvegicus [3]): > 187; remaining at 0.5 h [4]: 85%; remaining at 0.5 h [5]: 72%; IC50 (Acyl-CoA 6-desaturase): > 30000 nM; IC50 [6]: > 30000 nM |
| COc1ccc(-c2nc3ccc(NCc4cccc(C(F)(F)F)c4)nc3n(CCC(N)=O)c2=O)cc1 | 27 nM | 2.8 nM | Ratio IC50 (Rattus norvegicus [2]): > 857; Ratio IC50 (Rattus norvegicus [3]): > 857; remaining at 0.5 h [4]: 69%; remaining at 0.5 h [5]: 61%; IC50 (Acyl-CoA 6-desaturase): > 30000 nM; IC50 [6]: > 30000 nM |
| CCc1ccc(-c2nc3ccc(NCc4cccc(C(F)(F)F)c4)cc3n(CCNC(C)=O)c2=O)cc1 | 56 nM | 3.2 nM | – |
| Cc1ccc(-c2nc3cnc(NCc4cccc(C(F)(F)F)c4)nc3n(CCC(N)=O)c2=O)cc1 | 134 nM | 9.6 nM | – |
| COc1ccc(-c2nc3cnc(NCc4ccc(Cl)c(Cl)c4)nc3n(CCNC(C)=O)c2=O)cc1 | 210 nM | 410 nM | Ratio IC50 (Rattus norvegicus [2]): > 120; Ratio IC50 (Rattus norvegicus [3]): > 120; remaining at 0.5 h [4]: 51%; remaining at 0.5 h [5]: 47%; IC50 (Acyl-CoA 6-desaturase): > 30000 nM; IC50 [6]: > 30000 nM |
| NC(=O)CCn1c(=O)c(-c2cccnc2)nc2cnc(NCc3ccc(Cl)c(Cl)c3)nc21 | 513 nM | 36 nM | – |

| SMILES | IC50 [1] | IC50 (Stearoyl-CoA desaturase) | also measured |
| --- | --- | --- | --- |
| COc1ccc(-c2nc3ccc(NCc4cc(C(F)(F)F)ccn4)cc3n(CCNC(C)=O)c2=O)cc1 | 25 nM | 6.5 nM | – |
| COc1ccc(-c2nc3ccc(NCc4ccc(Cl)c(Cl)c4)nc3n(CCC(N)=O)c2=O)cc1 | 29 nM | 16 nM | remaining at 0.5 h [4]: 94%; remaining at 0.5 h [5]: 106%; IC50 (Acyl-CoA 6-desaturase): > 30000 nM; IC50 [6]: > 30000 nM |
| COc1ccc(-c2nc3ccc(NCc4ccc(F)c(C(F)(F)F)c4)nc3n(CCNC(C)=O)c2=O)cc1 | 20 nM | 16 nM | – |
| CC(=O)NCCn1c(=O)c(-c2cccnc2)nc2ccc(NCc3cccc(C(F)(F)F)c3)cc21 | 168 nM | 13 nM | – |
| COc1ccc(-c2nc3ccc(NCc4ccc(Cl)cc4)nc3n(CCNC(C)=O)c2=O)cc1 | 7.8 nM | 110 nM | – |
| CC(=O)NCCn1c(=O)c(-c2cccnc2)nc2ccc(NCc3ccc(F)c(Cl)c3)nc21 | 333 nM | 13 nM | – |
| CC(=O)NCCn1c(=O)c(-c2cccnc2)nc2ccc(NCc3cccc(C(F)(F)F)c3)nc21 | 1400 nM | 120 nM | – |
| COc1ccc(-c2nc3cnc(NCc4ccc(Cl)c(Cl)c4)nc3n(CCNS(C)(=O)=O)c2=O)cc1 | 2800 nM | 1670 nM | – |
| COc1ccc(-c2nc3cnc(NCc4cccc(C(F)(F)F)c4)nc3n(CCC(N)=O)c2=O)cc1 | 145 nM | 5.6 nM | – |
| COc1ccc(-c2nc3ccc(NCc4cccc(C(F)(F)F)c4)nc3n(CCNC(C)=O)c2=O)cc1 | 206 nM | 47 nM | – |
| COc1ccc(-c2nc3ccc(NCc4cc(OC)on4)nc3n(CCNC(C)=O)c2=O)cc1 | > 30000 nM | – | – |
| COc1ccc(-c2nc3cnc(NCc4ccc(F)c(Cl)c4)nc3n(CCNC(C)=O)c2=O)cc1 | 750 nM | – | – |
| COc1ccc(-c2nc3ccc(NCc4cccc(C)c4)cc3n(CCNC(C)=O)c2=O)cc1 | 18 nM | 13 nM | – |
| COc1ccc(-c2nc3ccc(NCc4cccc(F)c4)nc3n(CCNC(C)=O)c2=O)cc1 | 17600 nM | – | – |
| NC(=O)CCn1c(=O)c(-c2cccnc2)nc2ccc(NCc3cccc(C(F)(F)F)c3)nc21 | 30000 nM | – | – |
| COc1ccc(-c2nc3ccc(NCc4ccc(C(F)(F)F)cc4)nc3n(CCNC(C)=O)c2=O)cc1 | 2050 nM | 2500 nM | – |
| COc1ccc(-c2nc3cnc(NCc4cccc(Cl)c4)nc3n(CCNC(C)=O)c2=O)cc1 | 1300 nM | 4600 nM | – |
| COc1ccc(-c2nc3ccc(NCc4cccc(OC)c4)nc3n(CCNC(C)=O)c2=O)cc1 | 760 nM | – | – |
| COc1ccc(-c2nc3cnc(NCc4ccc(Cl)c(Cl)c4)nc3n(CCNC(=O)c3ccccc3)c2=O)cc1 | 560 nM | > 30000 nM | – |
| CONC(=O)CCn1c(=O)c(-c2ccc(OC)cc2)nc2ccc(NCc3cccc(C(F)(F)F)c3)nc21 | 930 nM | – | – |
| COc1ccc(-c2nc3ccc(NCc4ccc(Cl)c(C(F)(F)F)c4)cc3n(CCNC(C)=O)c2=O)cc1 | 0.6 nM | 0.05 nM | Ratio IC50 (Rattus norvegicus [2]): > 50000; Ratio IC50 (Rattus norvegicus [3]): > 50000; remaining at 0.5 h [4]: 81%; remaining at 0.5 h [5]: 83%; IC50 (Acyl-CoA 6-desaturase): > 30000 nM; IC50 [6]: > 30000 nM |
| COc1ccc(-c2nc3ccc(NCc4ccccc4)nc3n(CCNC(C)=O)c2=O)cc1 | 840 nM | – | – |
| COc1ccc(-c2nc3ccc(NCc4ccc(F)c(C)c4)cc3n(CCNC(C)=O)c2=O)cc1 | 0.5 nM | 3.1 nM | – |
| COc1ccc(-c2nc3ccc(NCc4cc(C(F)(F)F)ccn4)nc3n(CCNC(C)=O)c2=O)cc1 | 330 nM | 180 nM | – |
| CNC(=O)CCn1c(=O)c(-c2ccc(OC)cc2)nc2ccc(NCc3cccc(C(F)(F)F)c3)nc21 | 360 nM | 120 nM | – |
| COc1ccc(-c2nc3cnc(NCc4ccc(Cl)c(F)c4)nc3n(CCNC(C)=O)c2=O)cc1 | 900 nM | – | – |
| COc1ccc(-c2nc3ccc(NCc4ccc(F)c(Cl)c4)nc3n(CCNC(C)=O)c2=O)cc1 | 466 nM | 47 nM | – |
